According to article PMC4389225, “Triaminopyrimidine is a fast-killing and long-acting antimalarial clinical candidate” (Nature Communications, 2015):
Like-named read-outs stand apart in the source and are kept apart here.

Legend:
Pf3D7^0087/N9 = test: animal or person; format: in vivo, Plasmodium falciparum
Description: All animal studies were ethically reviewed and carried out in accordance with European Directive 86/609/EEC and the GSK Policy on the Care, Welfare and Treatment of Animals. During this experiment, female mice were used from the batch NSGJ 01/1 (The Jackson Laboratory, USA). The therapeutic efficacy of compound 12 against Pf3D7^0087/N9 was studied using a ‘4-day test’ reported earlier. Briefly, NODscidIL2Rγ^null mice engrafted with human erythrocytes were infected with 20 × 10^6 Pf-infected erythrocytes. Infections were performed by i.v. inoculation. All mice were randomly assigned to their corresponding treatment. The treatment started at day 3 and finished at day 6 after infection. The compound was administered orally as a suspension in 0.5% w/v hydroxypropyl methylcellulose (HPMC) with 0.1% v/v Tween 80, using an oral gavage at a maximum dose volume of 20 ml kg^−1. Vehicle alone was administered in untreated mice. In all cases, parasitemia was assessed in samples from peripheral blood obtained at days 3–7 after infection. A qualitative analysis of the effect of treatment on Pf3D7^0087/N9 was assessed by microscopy and flow cytometry. Fresh samples of peripheral blood from Pf-infected mice were stained with TER-119-Phycoerythrine (marker of murine erythrocytes) and SYTO-16 (nucleic acid dye) and then analysed by flow cytometry (FACS Calibur, BD). Microscopy analysis was performed with Giemsa-stained blood smears from samples taken at days 5 and 7 (48 and 96 h after starting treatment, respectively).
PK-PD model for the metabolite (compound 9) alone. Pharmacokinetic data from the Pf/SCID model was linked to efficacy using the following equation5.
Where P [log (total no. of parasites / mouse)], Kgro (growth rate constant), Pmax (log (maximum no. of parasites / mouse)), Kkill (maximum kill rate constant), H (Hill slope), EC50 (concentration required for achieving half maximal kill rate) and Ce (concentration of the drug in the effect compartment). Percent parasitemia values were converted into total number of parasites in mouse blood assuming […] (9.23 log10) RBCs per mouse. The lower limit of quantitation for % parasitemia was 0.01% or 5.23 log10. Effect compartment was used for modelling the delay observed in efficacy at a lower dose. […]

PfATP4 Cpd 2 = test: [3H]-hypoxanthine incorporation assay, PfATP4 Cpd 2 resistant; format: cell-based; settings: Plasmodium falciparum
Procedure: Supplementary Table 3: Compound 9 and 12 retain their activity against Pf strains harbouring mutations to novel antimalarial agents in clinical development. Compound 9 and 12 were tested for their antiplasmodial activity against a panel of Pf strains known to harbour mutations conferring resistance to novel agents under clinical development. Parasite growth inhibition is measured using the [3H]-hypoxanthine incorporation assay. IC50s are established for each strain (n ≥2) and compared to the IC50 of Dd2 (standard pan-resistant […]

[1] = Rat blood PK, IV and oral; format: in vivo; settings: for Vd / half-life / clearance / MRT / bioavailability / AUC(0-inf) / AUC(0-t) / Cmax: rat; for bioavailability / AUC(0-inf) / AUC(0-t) / Cmax: 10 mg/kg
Procedure: Blood samples were collected at 0.083, 0.25, 0.5, 1, 2, 4, 8, 23, 32, 48, 55 and 72 hours after an IV dose of 2 mg/kg or an oral dose of 10 mg/kg. Oral administration was done using oral gavage at a maximum dose volume of 10 mL/kg. Solution formulation containing 10% NMP, 20% DMA in dextrose / normal saline was used for IV administration and a suspension in 0.5% w/v HPMC with 0.1% v/v Tween 80 was used for oral administration. 25 µl of blood samples were mixed with 100 µL of Milli-Q water and vortexed for 5 minutes in the plate shaker at a speed of 900 rpm to ensure complete hemolysis. Proteins were precipitated by adding 125 µL of cold acetonotrile containing internal standard. After extraction on a plate shaker for 10 minutes at 900 rpm, the plate was centrifuged at 4000 rpm for 20 minutes. The supernatant (180 µL) was transferred to another plate and 2.5 µL of Zinc sulphate (200 mM) was added to separate the heme fraction. This mixture was centrifuged and 10 µL of the supernatant was analyzed by LC-MS/MS. […]

[2] = Wistar, whole blood, po, Oral 10 mg kg-1, Mean
[3] = Wistar, whole blood, po, Oral 10 mg kg-1, Rat 1
[4] = Wistar, whole blood, po, Oral 10 mg kg-1, Rat 2
[5] = Wistar, whole blood, po, Oral 10 mg kg-1, Rat 3

Cc1nc(Nc2ncc(N3CCN(C)[C@H](C)C3)c(Nc3cc(C)n(C)n3)n2)cc(C2CC2)c1F [compound 12, (R)-N2-(4-cyclopropyl-5-fluoro-6-methylpyridin-2-yl)-N4-(1,5-dimethyl-1H-pyrazol-3-yl)-5-(3,4-dimethylpiperazin-1-yl)pyrimidine-2,4-diamine]
clearance of Pf parasites (Pf3D7^0087/N9; 4 days of daily treatment, 20 mg kg^−1, oral): below detection limit | EC50 (Pf3D7^0087/N9; Plasmodium falciparum, in Mus musculus): 38 nM | ED99 (Pf3D7^0087/N9; mouse model of Pf malaria): < 30 mg/kg | dose at which maximum kill rate was observed (Pf3D7^0087/N9; oral, 4-day test): 40 mg/kg | Kkill (Pf3D7^0087/N9; parent, model predicted estimate): 0.097 h⁻¹ | IC50 (PfATP4 Cpd 2): 8.1 nM | Vd ([1]; Wistar (rat), Beagle (dog), whole blood (rat), plasma (dog), intravenous, 2 mg/kg, rat and dog, read-out: volume of distribution (Vss)): 10 to 20 L/kg | half-life ([1]; Wistar (rat), Beagle (dog), whole blood (rat), plasma (dog), iv, 2 mg/kg, intravenous PK, rat and dog, read-out: half-life): 11 to 13 h | half-life ([1]; Wistar (rat), Beagle (dog), whole blood (rat), plasma (dog), po, oral PK study, rat and dog, read-out: half-life): 14 to 16 h | clearance ([1]; Wistar, blood, iv, 2 mg/kg, Rat, read-out: Observed blood CL): 5 to 13 mL/min/kg | MRT ([1]; Wistar, whole blood, iv, 2 mg/kg, IV 2 mg kg-1, Mean): 15.7 h | clearance ([1]; Wistar, whole blood, iv, 2 mg/kg, IV 2 mg kg-1, Mean, read-out: CL): 9.2 mL/min/kg | Vd ([1]; Wistar, whole blood, iv, 2 mg/kg, IV 2 mg kg-1, Mean, read-out: Vss): 7.7 L/kg | half-life ([1]; Wistar, whole blood, iv, 2 mg/kg, IV 2 mg kg-1, Mean, read-out: t½ (converted)): 15.2 h | MRT ([1]; Wistar, whole blood, iv, 2 mg/kg, IV 2 mg kg-1, Rat 1): 11.8 h | clearance ([1]; Wistar, whole blood, iv, 2 mg/kg, IV 2 mg kg-1, Rat 1, read-out: CL): 13.1 mL/min/kg | Vd ([1]; Wistar, whole blood, iv, 2 mg/kg, IV 2 mg kg-1, Rat 1, read-out: Vss): 9.3 L/kg | half-life ([1]; Wistar, whole blood, iv, 2 mg/kg, IV 2 mg kg-1, Rat 1, read-out: t½ (converted)): 13.5 h | MRT ([1]; Wistar, whole blood, iv, 2 mg/kg, IV 2 mg kg-1, Rat 2): 22.6 h | clearance ([1]; Wistar, whole blood, iv, 2 mg/kg, IV 2 mg kg-1, Rat 2, read-out: CL): 4.8 mL/min/kg | Vd ([1]; Wistar, whole blood, iv, 2 mg/kg, IV 2 mg kg-1, Rat 2, read-out: Vss): 6.6 L/kg | half-life ([1]; Wistar, whole blood, iv, 2 mg/kg, IV 2 mg kg-1, Rat 2, read-out: t½ (converted)): 19.2 h | MRT ([1]; Wistar, whole blood, iv, 2 mg/kg, IV 2 mg kg-1, Rat 3): 12.6 h | clearance ([1]; Wistar, whole blood, iv, 2 mg/kg, IV 2 mg kg-1, Rat 3, read-out: CL): 9.6 mL/min/kg | Vd ([1]; Wistar, whole blood, iv, 2 mg/kg, IV 2 mg kg-1, Rat 3, read-out: Vss): 7.2 L/kg | half-life ([1]; Wistar, whole blood, iv, 2 mg/kg, IV 2 mg kg-1, Rat 3, read-out: t½ (converted)): 13 h | bioavailability ([1]; Wistar, whole blood, oral, read-out: Rat F (bioavailability)): 80% | AUC(0-inf) [1, 2]: 35.8 µM·h | AUC(0-t) [1, 2]: 34.7 µM·h | Cmax [1, 2]: 2000 nM | bioavailability ([1]; Wistar, whole blood, po, Oral 10 mg kg-1, Mean, read-out: F): 90% | AUC(0-inf) [1, 3]: 33.1 µM·h | AUC(0-t) [1, 3]: 31.8 µM·h | Cmax [1, 3]: 1710 nM | bioavailability ([1]; Wistar, whole blood, po, Oral 10 mg kg-1, Rat 1, read-out: F): 121% | AUC(0-inf) [1, 4]: 38.4 µM·h | AUC(0-t) [1, 4]: 37.2 µM·h | Cmax [1, 4]: 2210 nM | bioavailability ([1]; Wistar, whole blood, po, Oral 10 mg kg-1, Rat 2, read-out: F): 52% | AUC(0-inf) [1, 5]: 36 µM·h | AUC(0-t) [1, 5]: 35.1 µM·h | Cmax [1, 5]: 1990 nM | bioavailability ([1]; Wistar, whole blood, po, Oral 10 mg kg-1, Rat 3, read-out: F): 96% | Tmax ([1]; Wistar, whole blood, Oral 10 mg kg-1, Rat 1): 4 h | CL ([1]; rat and dog): < 35 % liver blood flow
